The source of these data is BindingDB's records for PubMed 2905002 (Schering-Plough, 1988).

Molecules are shown by their SMILES.

The test deals with 5-hydroxytryptamine receptor 2A (Rattus norvegicus, UniProt P14842).
Chain of 5-hydroxytryptamine receptor 2A (P14842 whole entry): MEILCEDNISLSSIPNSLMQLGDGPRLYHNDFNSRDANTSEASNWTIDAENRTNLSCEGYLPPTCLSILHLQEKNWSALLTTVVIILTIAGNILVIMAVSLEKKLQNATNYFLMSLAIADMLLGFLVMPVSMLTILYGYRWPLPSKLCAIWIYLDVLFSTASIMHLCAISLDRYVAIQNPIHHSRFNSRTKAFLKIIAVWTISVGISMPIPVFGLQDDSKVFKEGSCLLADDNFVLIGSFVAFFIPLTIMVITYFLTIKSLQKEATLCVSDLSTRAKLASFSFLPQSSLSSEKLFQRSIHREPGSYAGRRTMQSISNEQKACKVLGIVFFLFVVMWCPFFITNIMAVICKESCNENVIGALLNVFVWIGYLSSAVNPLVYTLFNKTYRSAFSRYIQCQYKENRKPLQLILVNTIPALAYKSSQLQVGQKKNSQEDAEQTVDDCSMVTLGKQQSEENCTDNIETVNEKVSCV

For the compound `CN1CCc2cc(Cl)c(O)cc2[C@H]2c3ccccc3CC[C@@H]21`, the affinity corresponds to a Ki of 0.321 µM. On to `CN1CCc2cc(Cl)c(O)cc2[C@@H](c2ccccc2)C1` [SCH 23390,R(+)], for which the affinity corresponds to a Ki of 0.0131 µM.
